Laboratory results: patent publication US20200188465A1, “TREATMENT OF CYTOKINE RELEASE SYNDROME BY DECREASING LEVEL OF PROINFLAMMATORY CYTOKINE” (Gwo Xi Stem Cell Applied Technology Co., Ltd., priority 2018, published 2020)
Entries after “also recorded” stand apart in the source; their conditions may differ. Where two headings read alike, the source gives them in different places.

Experiments:
Assay type in all cases: cell-based, Human
Jurkat cells = assay: Cell viability (MTS) of Jurkat cells co-treated with PMA, ionomycin and drug (Embodiments 3 and 4)
Experimental: (§1) Human Jurkat T cell line (Clone E6-1, ATCC TIB 152) and THP-1 were used in the embodiments and purchased from Bioresource Collection and Research Centre (BCRC), Taiwan. The cells were maintained in RPMI 1640 medium (Gibco, Carlsbad, Calif., USA) with 2 mM L-glutamine adjusted to contain 1.5 g/L sodium bicarbonate, 4.5 g/L glucose, 10 mM HEPES, 1.0 mM sodium pyruvate, 1% (v/v) penicillin-streptomycin (HyClone, Logan, Utah), and 10% (v/v) fetal bovine serum (FBS; HyClone). The cells were kept in the incubator with 5% CO2 at 37° C. The passages were performed when the cell density didn't allow the cell concentration to exceed 3×10^6 cells/mL.
(§2) The cell viability was determined using MTS reagent (Promega). Assays were performed by adding MTS to each well for 3 hours at 37° C. with 5% CO2. The amount of formazan converted by living cells, and then recording absorbance at 490 nm with a 96-well plate reader.
(§3) In the Embodiment, Jurkat cells were seeded in 48-well culture plates at a density of 5.0×10^5 cells/mL indifferent culture medium, and each of the culture medium contains PMA, ionomycin, and THZ in the proportions shown in Table 3 below.
(§4) After 24 and 48 hours, the supernatants were collected for cell viability analysis and cytokine analysis. The concentration of cytokine was measured by Human IFN-γ ELISA kit (Invitrogen) according to the manufacturers.
(§5) In the Embodiment, Jurkat cells were seeded in 48-well culture plates at a density of 5.0×10^5 cells/mL in different culture medium, and each of the culture medium contains PMA, ionomycin, and HH-F3 in the proportions shown in Table 4 below.
(§6) After 24, 30, and 48 hours, the supernatants were collected for cell viability analysis and cytokine analysis. The concentration of cytokine was measured by Human IFN-γ ELISA kit (Invitrogen) according to the manufacturers.

THP-1 cells = assay: Cell viability (MTS) of THP-1 cells pre-stimulated with LPS, then drug (Embodiment 2)
IFN-γ [1] = assay: IFN-γ release (ELISA) of Jurkat T cells pre-stimulated with PMA plus ionomycin, then drug (Embodiment 1); settings: for IFN-γ content in the cells is reduced at least: summary, concentration not given; for IFN-γ/cell viability: Jurkat pretreated PMA + ionomycin
Experimental: as §1
(§7) Jurkat cells were seeded in 48-well culture plates at a density of 5.0×10^5 cells/mL in culture medium. To promote Interferon gamma (IFN-γ; IFNG) production, the cells were stimulated with or without the combination of PMA and Ionomycin in culture medium. THP-1 cells were treated with or without the LPS that promoted IL6 production.
(§8) The culture supernatants were harvested by centrifugation and stored at −20° C. for cytokine analysis. The concentration of IFN-γ and IL6 were measured by ELISA kit (Invitrogen, Carlsbad, Calif., USA) according to the manufacturer's instructions.
(§9) After 6 and 24 hours, the supernatants were collected for cell viability analysis and cytokine analysis. The concentration of cytokine was measured by Human IFN-γ ELISA kit (Invitrogen) according to the manufacturers.

IFN-γ [2] = assay: IFN-γ release (ELISA) of Jurkat cells co-treated with PMA, ionomycin and drug (Embodiments 3 and 4); settings: for inhibition at 1 µM / inhibition at 5 µM: Homo sapiens, Jurkat, read-out: IFN-γ/cell viability lower than group 2 (PI alone); for inhibition at 1 µM: group 3 (THZ 1 μM); for inhibition at 5 µM: group 4 (THZ 5 μM); for effect on cytokine induction, in words: co-treatment with PMA + ionomycin
Experimental: as §1, §8, §3, §4, §5, §6

IL6 = IL6 release (ELISA) of THP-1 cells pre-stimulated with LPS, then drug (Embodiment 2); settings: for IL-6 content in the cells is reduced at least: summary, concentration not given; for IL6/cell viability: THP-1 pretreated LPS
Experimental: HyClone). […] The passages were performed when the cell density didn't allow the cell concentration to exceed 3×10^6 cells/mL. Jurkat cells were seeded in 48-well culture plates at a density of 5.0×10^5 cells/mL in culture medium. To promote Interferon gamma (IFN-γ; IFNG) production, the cells were stimulated with or without the combination of PMA and Ionomycin in culture medium. THP-1 cells were treated with or without the LPS that promoted IL6 production. The culture supernatants were harvested by centrifugation and stored at −20° C. for cytokine analysis. The concentration of IFN-γ and IL6 were measured by ELISA kit (Invitrogen, Carlsbad, Calif., USA) according to the manufacturer's instructions. […] The concentration of cytokine was measured by IL6 ELISA kit (Invitrogen) according to the manufacturers.

Jurkat T cells = assay: Cell viability (MTS) of Jurkat T cells pre-stimulated with PMA plus ionomycin, then drug (Embodiment 1)
Experimental: as §1, §7, §2, §9

[3] = group 3, THZ 1 μM co-treated with PI, 48 hr
[4] = group 4, THZ 5 μM co-treated with PI, 24 hr
[5] = group 4, THZ 5 μM co-treated with PI, 48 hr
[6] = drug 1 μM, 6 h, THP-1 pretreated LPS 0.1 μg/mL 16 h
[7] = drug 1 μM, 24 h, THP-1 pretreated LPS
[8] = drug 5 μM, 6 h, THP-1 pretreated LPS
[9] = drug 5 μM, 24 h, THP-1 pretreated LPS
[10] = drug 10 μM, 6 h, THP-1 pretreated LPS
[11] = drug 10 μM, 24 h, THP-1 pretreated LPS
[12] = at 24 hours after administering
[13] = drug 1 μM, 6 h, IFN-γ normalized with cell viability
[14] = drug 1 μM, 6 h, IL6 normalized with cell viability
[15] = drug 1 μM, 6 h, Jurkat pretreated PMA 0.01 μg/mL + ionomycin 1 μM 24 h
[16] = drug 1 μM, 24 h, Jurkat pretreated PMA + ionomycin
[17] = drug 5 μM, 6 h, Jurkat pretreated PMA + ionomycin
[18] = drug 5 μM, 24 h, Jurkat pretreated PMA + ionomycin
[19] = drug 10 μM, 6 h, Jurkat pretreated PMA + ionomycin
[20] = drug 10 μM, 24 h, Jurkat pretreated PMA + ionomycin

CSc1ccc2c(c1)N(CCC1CCCCN1C)c1ccccc1S2 (stereo not drawn) [THZ, Thioridazine]
effect on cell viability, in words (Jurkat cells; co-treatment with PMA + ionomycin): does not affect cell viability
Cell Viability (%) (Jurkat cells; [3]): 71 ± 4%
Cell Viability (%) (Jurkat cells; group 3, THZ 1 μM co-treated with PMA 0.01 μg/mL + ionomycin 1 μM, 24 hr): 81 ± 4%
Cell Viability (%) (Jurkat cells; [4]): 74 ± 6%
Cell Viability (%) (Jurkat cells; [5]): 65 ± 4%
Cell Viability (%) (THP-1 cells; [6]): 88 ± 7%
Cell Viability (%) (THP-1 cells; [7]): 103 ± 1%
Cell Viability (%) (THP-1 cells; [8]): 79 ± 5%
Cell Viability (%) (THP-1 cells; [9]): 101 ± 8%
Cell Viability (%) (THP-1 cells; [10]): 68 ± 4%
Cell Viability (%) (THP-1 cells; [11]): 87 ± 5%
IFN-γ content in the cells reduced (IFN-γ [1]; 1 μM, after 6 hours, vs PMA + ionomycin alone): 18.6%
IFN-γ content in the cells reduced (IFN-γ [1]; 1 μM, after 24 hours): 28.2%
IFN-γ content in the cells reduced (IFN-γ [1]; 5 μM, after 6 hours): 23.7%
IFN-γ content in the cells reduced (IFN-γ [1]; 5 μM, after 24 hours): 57.7%
IFN-γ content in the cells reduced (IFN-γ [1]; 10 μM, after 6 hours): 36.2%
IFN-γ content in the cells reduced (IFN-γ [1]; 10 μM, after 24 hours): 52.2%
effect on IFN-γ content, in words (IFN-γ [1]; Jurkat, PMA + ionomycin, 6 hr and 24 hr): significantly decreased IFN-γ expression; also recorded: stronger effects to cells compared to TFP and SAHA
IFN-γ content in the cells is reduced at least (IFN-γ [1]; at 6 hours after administering): at least 18.6%
IFN-γ content in the cells is reduced at least (IFN-γ [1]; [12]): at least 28.2%
IFN-γ/cell viability (IFN-γ [1]; [13]): 38.4 pg/mL
IFN-γ/cell viability (IFN-γ [1]; drug 1 μM, 24 h): 24.4 pg/mL
IFN-γ/cell viability (IFN-γ [1]; drug 5 μM, 6 h): 36.0 pg/mL
IFN-γ/cell viability (IFN-γ [1]; drug 5 μM, 24 h): 14.4 pg/mL
IFN-γ/cell viability (IFN-γ [1]; drug 10 μM, 6 h): 30.1 pg/mL
IFN-γ/cell viability (IFN-γ [1]; drug 10 μM, 24 h): 16.3 pg/mL
inhibition at 1 µM (IFN-γ [2]; 24 hr): 46.5%
inhibition at 1 µM (IFN-γ [2]; 48 hr): 18.7%
inhibition at 5 µM (IFN-γ [2]; 24 hr): 45.3%
inhibition at 5 µM (IFN-γ [2]; 48 hr): 1%
effect on cytokine induction, in words (IFN-γ [2]): significantly attenuated cytokine induction in Jurkat cells
effect on cytokine induction, in words (IFN-γ [2]; listed as Thioridazine): able to reduce cytokine production
IFN-γ/cell viability (IFN-γ [2]; group 3, THZ 1 μM co-treated with PI, 24 hr): 34.9 ± 0.5 pg/mL
IFN-γ/cell viability (IFN-γ [2]; [3]): 32.6 ± 0.6 pg/mL
IFN-γ/cell viability (IFN-γ [2]; [4]): 35.7 ± 0.2 pg/mL
IFN-γ/cell viability (IFN-γ [2]; [5]): 39.7 ± 0.6 pg/mL
IL-6 content in the cells reduced (IL6; 1 μM, after 6 hours, vs LPS alone): 20.7%
IL-6 content in the cells reduced (IL6; 1 μM, after 24 hours): 39.5%
IL-6 content in the cells reduced (IL6; 5 μM, after 6 hours): 37.1%
IL-6 content in the cells reduced (IL6; 5 μM, after 24 hours): 51.8%
IL-6 content in the cells reduced (IL6; 10 μM, after 6 hours): 45.9%
IL-6 content in the cells reduced (IL6; 10 μM, after 24 hours): 65.2%
IL-6 content in the cells is reduced at least (IL6; "at hours after administering" (number not given)): at least 20.7%
effect on IL-6 content, in words (IL6; Table 2, 6 hr and 24 hr): stronger effects to cells compared to TFP
IL-6 content in the cells is reduced at least (IL6; [12]): at least 39.5%
IL6/cell viability (IL6; [14]): 52.9 pg/mL
IL6/cell viability (IL6; drug 1 μM, 24 h): 41.3 pg/mL
IL6/cell viability (IL6; drug 5 μM, 6 h): 41.9 pg/mL
IL6/cell viability (IL6; drug 5 μM, 24 h): 32.9 pg/mL
IL6/cell viability (IL6; drug 10 μM, 6 h): 36.1 pg/mL
IL6/cell viability (IL6; drug 10 μM, 24 h): 23.7 pg/mL
Cell Viability (%) (Jurkat T cells; [15]): 79 ± 5%
Cell Viability (%) (Jurkat T cells; [16]): 69 ± 6%
Cell Viability (%) (Jurkat T cells; [17]): 77 ± 2%
Cell Viability (%) (Jurkat T cells; [18]): 69 ± 4%
Cell Viability (%) (Jurkat T cells; [19]): 77 ± 2%
Cell Viability (%) (Jurkat T cells; [20]): 55 ± 3%

CN1CCN(CCCN2c3ccccc3Sc3ccc(C(F)(F)F)cc32)CC1 [TFP, Trifluoperazine]
Cell Viability (%) (THP-1 cells; [6]): 63 ± 6%
Cell Viability (%) (THP-1 cells; [7]): 96 ± 9%
Cell Viability (%) (THP-1 cells; [8]): 75 ± 4%
Cell Viability (%) (THP-1 cells; [9]): 82 ± 9%
Cell Viability (%) (THP-1 cells; [10]): 71 ± 8%
Cell Viability (%) (THP-1 cells; [11]): 75 ± 8%
IFN-γ/cell viability (IFN-γ [1]; [13]): 41.8 pg/mL
IFN-γ/cell viability (IFN-γ [1]; drug 1 μM, 24 h): 39.7 pg/mL
IFN-γ/cell viability (IFN-γ [1]; drug 5 μM, 6 h): 35.7 pg/mL
IFN-γ/cell viability (IFN-γ [1]; drug 5 μM, 24 h): 32.5 pg/mL
IFN-γ/cell viability (IFN-γ [1]; drug 10 μM, 6 h): 40.9 pg/mL
IFN-γ/cell viability (IFN-γ [1]; drug 10 μM, 24 h): 35.6 pg/mL
IL6/cell viability (IL6; [14]): 43.9 pg/mL
IL6/cell viability (IL6; drug 1 μM, 24 h): 42.8 pg/mL
IL6/cell viability (IL6; drug 5 μM, 6 h): 35.6 pg/mL
IL6/cell viability (IL6; drug 5 μM, 24 h): 33.9 pg/mL
IL6/cell viability (IL6; drug 10 μM, 6 h): 32.5 pg/mL
IL6/cell viability (IL6; drug 10 μM, 24 h): 38.4 pg/mL
Cell Viability (%) (Jurkat T cells; [15]): 91 ± 2%
Cell Viability (%) (Jurkat T cells; [16]): 72 ± 5%
Cell Viability (%) (Jurkat T cells; [17]): 88 ± 9%
Cell Viability (%) (Jurkat T cells; [18]): 70 ± 4%
Cell Viability (%) (Jurkat T cells; [19]): 86 ± 4%
Cell Viability (%) (Jurkat T cells; [20]): 72 ± 7%

O=C(CCCCCCC(=O)Nc1ccccc1)NO [SAHA, Suberoylanilide hydroxamic acid]
IFN-γ/cell viability (IFN-γ [1]; [13]): 25.5 pg/mL
IFN-γ/cell viability (IFN-γ [1]; drug 1 μM, 24 h): 33.8 pg/mL
IFN-γ/cell viability (IFN-γ [1]; drug 5 μM, 6 h): 28.2 pg/mL
IFN-γ/cell viability (IFN-γ [1]; drug 5 μM, 24 h): 34.0 pg/mL
IFN-γ/cell viability (IFN-γ [1]; drug 10 μM, 6 h): 28.0 pg/mL
IFN-γ/cell viability (IFN-γ [1]; drug 10 μM, 24 h): 32.0 pg/mL
Cell Viability (%) (Jurkat T cells; [15]): 70 ± 9%
Cell Viability (%) (Jurkat T cells; [16]): 53 ± 5%
Cell Viability (%) (Jurkat T cells; [17]): 65 ± 7%
Cell Viability (%) (Jurkat T cells; [18]): 59 ± 2%
Cell Viability (%) (Jurkat T cells; [19]): 65 ± 2%
Cell Viability (%) (Jurkat T cells; [20]): 60 ± 6%
